The values below come from paper PMC5812233, “A novel CAV derived cell-penetrating peptide efficiently delivers exogenous molecules through caveolae-mediated endocytosis” (Veterinary Research, 2018).

Series [1] has as its system HCT116 cells. Kind of series: Flow cytometry of cellular uptake of FITC-labeled peptides. It is filed as cell-based. To be noted: for mean percent of relative internalization: 10 000 events, three experiments in triplicate (Figure 3D). How it is done: The comparison of cell-penetrating efficiency of peptides in HCT116 cells was tested by incubating the cells with CVP1 or TAT peptides. […] The cells were washed twice by centrifugation and finally resuspended in 400 µL PBS for assaying of cellular fluorescent intensity by flow cytometry (BD FACSAria SORP, Becton–Dickinson, USA). A total of 10 000 events were recorded. Data was obtained and analyzed using Flowjo software.
(In general: Flow cytometry measures light scatter and fluorescence of single cells or particles in a stream.)

A further series has as its system furin. The settings on record: motif (RKKR and RQRR) in the TAT sequence; cited from earlier work. An excerpt: Generally, CPPs are composed of 5–30 amino acids (aa) with enriched lysine or arginine residues, and divided into three classes including amphipathic CPP, cationic CPP and hydrophobic CPP [2, 3]. […] As the pioneer of CPPs, HIV-TAT with 86 amino acids plays vital roles in the replication of HIV. It wa ...

In series [2] the test system is HCT116 cells. The settings on record: 5 µM FITC-labeled peptide, 30 min, 37 °C, serum-free medium, confocal microscopy. As to the method: (§1) 293T cells, HCT-116 cells, 3T3 cells, MDCK cells and MSB1 cells were maintained in our laboratory and were grown in Dulbecco’s modified Eagle’s medium supplemented with 10% heated-inactivated fetal bovine serum (FBS) and 1% penicillin–streptomycin solution at 37 °C and 5% CO2.
(§2) Firstly, 2.0 × 10^5 of 293T cells, HCT-116 cells, 3T3 cells or MDCK cells were seeded onto glass cover slides in 24-well plates and cultured for 12 h. The cells were then washed with phosphate buffered saline (PBS) and incubated with 5 µM of FITC-labeled CVP1, TAT and Mut-CVP1 peptides in 500 µL serum-free medium for 30 min. The concentration-dependent intake of CVP1 peptide in HCT-116 cells was then evaluated. In brief, after incubation of cells with FITC-CVP1 peptide for 30 min, cells were washed for three times and stained with Hoechst 33342 (5 µg/mL) for 10 min. Finally, cells were washed three times with PBS and imaged using confocal laser scanning microscope (Leica, TCS SP8 STED and Germany) at 60× magnification.

Series [3] relates to HCT116 cells. Description: β-galactosidase delivery, X-gal staining. It is filed as cell-based. To be noted: 20 µM peptide non-covalently complexed with 1 µg β-galactosidase, 1 h + 90 min at 37 °C, phase-contrast microscopy. As to the method:
Protein delivery ability of CVP1 was assessed using β-galactosidase enzyme as previously described. In brief, CVP1 and Mut-CVP1 at a concentration of 20 µM were non-covalently complexed with β-galactosidase (1 µL, 1 µg/µL) enzyme respectively. The mixtures were incubated for 30 min at room temperature (RT) for complex formation. The peptide-enzyme complex was added to the HCT116 cells with Opti-MEM media (100 µL) and the cells were incubated for 1 h at 37 °C. After incubation, complete media (150 µL) was added to the cells, and further incubated for 90 min at 37 °C. The cells were washed thoroughly with PBS to remove extracellular peptide-enzyme complex and fixed in PBS containing 1% formaldehyde and 0.2% glutaraldehyde for 15 min at RT. The cells were washed subsequently three times with PBS and stained with X-gal staining buffer (40 mM potassium ferricyanide, 40 mM potassium ferrocyanide, 20 mM magnesium chloride, 2 mg/mL of X-gal in PBS) for 90 min at 37 °C. Finally, the cells were analyzed under a phase-contrast microscope (Olympus) at 200× magnification and imaged.

The subject of series [4] is HCT116 cells. Description: Plasmid (pCDNA3.1-RFP) transfection, fluorescence microscopy and flow cytometry. The settings on record: 40 µM peptide, 1 µg plasmid DNA; for RFP fluorescence of cells treated with peptide-pCDNA3.1-RFP complex: 48 h post-transfection, fluorescence microscope. It is filed as cell-based. How it is done:
(§3) The linking of DNA with CVP1 was made by the charge interaction. To confirm the formation of the peptide and plasmid complexes, the CVP1 peptide (5 μM) and plasmid DNA (200 ng) were diluted in 10 µL Opti-MEM and co-incubated at 37 °C for 45 min, and then agarose gel retardation assay was performed as described previously. The transfection experiment was conducted to test the transfection efficiency of CVP1-DNA on HCT116 cells as described previously. Briefly, 1 μg of plasmid DNA and 40 µM of CVP1 peptide or TAT peptide were diluted in 50 µL Opti-MEM, respectively and incubated at RT for 30 min. The lipofectamine 2000 (Invitrogen, USA) was used as a positive control, following the manual provided by the manufacture. […] Meanwhile, the fluorescence intensity was measured by Flow cytometry as described previously.

A further series has as its system 293T cells. The settings on record: 5 µM FITC-labeled peptide, 30 min, 37 °C, serum-free medium, confocal microscopy. How it is done:
as §1, §2

In another series the test system is MDCK cells. To be noted: 5 µM FITC-labeled peptide, 30 min, 37 °C, serum-free medium, confocal microscopy. How it is done: as §1, §2
For a further series, the system named is 3T3 cells. The settings on record: 5 µM FITC-labeled peptide, 30 min, 37 °C, serum-free medium, confocal microscopy. How it is done:
as §1, §2

In a further series the test system is poly (I:C). Description: Gel retardation electrophoresis of peptide-poly (I:C) complex. It is filed as binding. To be noted: 10 µM peptide, 5 µg poly (I:C), 45 min 37 °C.
The next series relates to HD11 cells. Kind of series: Poly (I:C) delivery, IFN-β mRNA by real-time PCR. The settings on record: 10 µM peptide, 5 µg poly (I:C), 6 h. Type of series: cell-based. As to the method:
To analyze the ability of CVP1 to delivery poly(I;C), the CVP1 (10 µM) was first mixed with the poly (I:C) (5 µg) for 45 min at 37 °C for generating the complex. And then, the HD11 cells were incubated with peptide-poly (I:C) complexes, peptide (10 µM) only or poly (I:C) (5 µg) with transfecting reagent. After 6 h of incubation, the cells were collected and total RNA extracted using total RNA purification kit (Axygen, USA). 1 µg of RNA was reverse transcribed into cDNA with a reverse transcription reagent kit (Takara, Japan). The relative mRNA level of IFN-β was detected by Real-time PCR.

In the next series the test system is pCDNA3.1-RFP plasmid. Description: Agarose gel retardation (gel-shift) assay of peptide-plasmid complex. Type of series: binding. To be noted: 5 µM peptide, 200 ng plasmid DNA, 37 °C 45 min, ethidium bromide. As to the method:
as §3

In series [5] the test system is HCT116 cells. Kind of series: Cell internalization pathway: endocytosis inhibitors and temperature, flow cytometry. Type of series: cell-based. How it is done:
The mechanism of uptake of CVP1 in HCT116 cells was investigated by means of physical and chemical inhibition of endocytosis. Incubation of peptide and cells at 37 or 4 °C were treated to measure the influence of temperature on peptide internalization (used as a physical means of inhibition of endocytosis). HCT116 cells cultured in 12-well plates were pretreated for 30 min with inhibitors: 30 µM chlorpromazine (a clathrin-mediated endocytosis inhibitor, which prevents the assembly of clathrin-coated pits at the inner surface of the cell membrane), 5 mM methylated-β-cyclodextrin (a caveolae-mediated endocytosis inhibitor, a cholesterol depletion agent), 10 µM 5-(N-ethyl-N-isopropyl) amilorid (a macropinocytosis inhibitor, which selectively blocks the Na^+/H^+ antiporter) and 50 µM LY294002 (a macropinocytosis inhibitor, a strong phosphatidylinositol-3 kinase inhibitor) as previously described. The cells were further incubated with the peptide for 50 min and then analyzed by flow cytometry. To investigate the effect of incubation time, the HCT116 cells were incubated with CVP1 at 37 °C for different time periods.

The subject of series [6] is HCT116 cells. The settings on record: up to 40 µM (5, 10, 20, 40 µM), 12, 24 and 48 h (Figure 3C). As to the method:
Effect of CVP1 on the viability of cells was evaluated by MTT assay as described previously.

Setting [7] is: HCT116 cells, 0.1 µM FITC-labeled peptide, flow cytometry after trypsin 5 min to remove non-internalized peptide.
Setting [8] is: HCT116 cells, 1 µM FITC-labeled peptide, flow cytometry after trypsin 5 min.
Where [9] appears, read: HCT116 cells, 2 µM FITC-labeled peptide, flow cytometry after trypsin 5 min.
The mark [10] stands for this setting: HCT116 cells, 5 µM FITC-labeled peptide, flow cytometry after trypsin 5 min.
Setting [11] is: HCT116 cells, 10 µM FITC-labeled peptide, flow cytometry after trypsin 5 min.

Entries after “also recorded” stand apart in the source; their conditions may differ. No end group written: not given here. *: point of attachment. FITC = O=C1OC2(c3ccc(O)cc3Oc3cc(O)ccc32)c2ccc(NC(=S)*)cc21

On to “FITC-YGRKKRRQRRR [TAT, reference compound]”, for which the “mean percent of relative internalization” value amounted to 0.1% with HCT116 cells [1] (setting [7]); 0.4% with HCT116 cells [1] (setting [8]); 1.7% in the series on HCT116 cells [1] (setting [9]); 25% in the series with HCT116 cells [1] (setting [10]); 61% with HCT116 cells [1] (setting [11]). For the same substance, the stability toward furin result in the series with furin is on record as “cleaved by furin”.
For {FITC}-MAAGAGAPAGAFYAFGAGA [Mut-CVP1], in the series on HCT116 cells [2], the “specific green fluorescence dots in cells (internalization)” value is given as “not”. Besides, the “X-gal staining of cells treated with peptide-β-galactosidase complex” value with HCT116 cells [3] is recorded as “very weak blue background”. The “cell-penetrating activity (overall)” value in the series on HCT116 cells [1] (HCT116 cells, FITC-labeled peptide, confocal imaging and flow cytometry) is “did not show any cell-penetrating activity”. The “RFP fluorescence of cells treated with peptide-pCDNA3.1-RFP complex” value in the series with HCT116 cells [4] is reported as “no fluorescence”.
Regarding “{FITC}-MARRARRPRGRFYAFRRGR [CVP1, N terminus (aa 1–19) of VP1 from chicken anemia virus, FITC-labeled cell-penetrating peptide]”, the “specific green fluorescence dots in cells (internalization)” value with 293T cells, with MDCK cells, with HCT116 cells [2] and in the series on 3T3 cells was “clearly observed” throughout. Moreover, in the series with poly (I:C), the “complex formation with poly (I:C)” value is “could conjugate with the poly (I:C) to form a complex”. The “X-gal staining of cells treated with peptide-β-galactosidase complex” value with HCT116 cells [3] is listed as “strong blue color”. Also, the “mean percent of relative internalization” value came to 0.1% in the series on HCT116 cells [1] (setting [7]); 2.1% in the series with HCT116 cells [1] (setting [8]); 18.7% in the series on HCT116 cells [1] (setting [9]); 86% with HCT116 cells [1] (setting [10]); 98% in the series on HCT116 cells [1] (setting [11]). Moreover, the “intensity of fluorescence in cells versus incubation time” value with HCT116 cells [1] (HCT116 cells, 5 µM peptide, 5, 10, 15, 20, 25, 30 min, flow cytometry (Figure 3B)) is given as “increased as the incubation time was increased from 5 to 30 min”. In the series with HCT116 cells [1] (HCT116 cells, 1, 2, 5, 10, 20, 40 µM, 30 min, 37 °C, flow cytometry (Figure 3A)), the “cell-penetrating efficiency versus concentration” value is recorded as “dose-dependent”. For the same substance, the “efficacy of delivering plasmid, comparison with other carriers” value in the series on HCT116 cells [4] (48 h, flow cytometry, comparators TAT peptide, lipofectamine 2000) is “significantly higher signal of fluorescence than the TAT/RFP sample; also recorded: not as equal as commercial transfection reagents”. In addition, the “RFP fluorescence of cells treated with peptide-pCDNA3.1-RFP complex” value with HCT116 cells [4] is “strong fluorescence”. The “capacity of delivering poly (I:C), comparison with other carriers” value in the series with HD11 cells (IFN-β mRNA by real-time PCR, comparators TAT, transfection reagent) is listed as “higher than the TAT; also recorded: not as equal as commercial transfection reagents”. Further, the “IFN-β mRNA expression of cells treated with peptide/poly (I:C) complexes versus naked peptide or poly (I:C) only” value in the series on HD11 cells (real-time PCR) is reported as “significantly increased”. Also, the “migration of plasmid conjugated with peptide (DNA binding capacity)” value in the series with pCDNA3.1-RFP plasmid is “much lower migration speed than naked plasmid”. The “effect of EIPA on cellular intake of the peptide” value with HCT116 cells [5] (HCT116 cells pretreated 30 min with 10 µM 5-(N-ethyl-N-isopropyl) amiloride (macropinocytosis inhibitor), then peptide 50 min) is “unable to inhibit”. In addition, the “effect of CPZ on cellular intake of the peptide” value in the series on HCT116 cells [5] (HCT116 cells pretreated 30 min with 30 µM chlorpromazine (clathrin-mediated endocytosis inhibitor), then peptide 50 min) is “unable to inhibit”. The “effect of LY294002 on cellular intake of the peptide” value in the series with HCT116 cells [5] (HCT116 cells pretreated 30 min with 50 µM LY294002 (macropinocytosis inhibitor), then peptide 50 min) is listed as “only slightly blocked”. In the series with HCT116 cells [5] (HCT116 cells pretreated 30 min with 5 mM methylated-β-cyclodextrin (caveolae-mediated endocytosis inhibitor), then peptide 50 min), the “effect of MβCD on cellular intake of the peptide” value is given as “significantly reduced”. In addition, in the series with HCT116 cells [5] (HCT116 cells, 10 µM peptide, 4 °C compared with 37 °C), the “cell-penetrating activity at 4 °C” value is on record as “efficiently inhibited”. The “toxicity to cells (cell viability, MTT)” value with HCT116 cells [6] is reported as “non-toxic”.
